The structures appear in SMILES notation.

The record followed here is patent US9468209B2, “Method for eradicating weeds with derivatives of 3-acetyl-5-sec-butyl-4-hydroxy-3-pyrrolin-2-one” (priority 2012, dated 2016).

Test in all cases: Leaf piece damage test
Holding throughout (format): in vivo
Holding throughout (design): key: 4: The leaf completely dead; 3: Two third of the leaf withered; 2: One half of the leaf withered; 1: Only edge of the leaf withered; 0: Not damage at all
Common to all, as to settings: 50 μg/mL, 4 days

The subject of assay [1] is Barbyardgrass Echinochloa crusgalli. In outline:
(§1)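 Leaf pieces 5 mm across, taken from each weed's second leaf, receive three applications of compound at 50 μg/mL in dilute aqueous methanol. Each treatment uses five pieces. Four days on, damage levels are recorded and combined into a weighted index scaled to 100.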

Assay [2] deals with Mosla scabra. In outline: as §1
Assay [3] has as its system Redroot pigweed (Amaramthus retroflexus). In outline:
as §1

The subject of assay [4] is Carpesium abrotanoides. In outline: as §1
Assay [5] concerns Trifolium pretense. In outline:
as §1

The test system of assay [6] is Commelina bengalensis. An outline of the steps: as §1
Assay [7] has as its system Youngia japonica. An outline of the steps: as §1
The test system of assay [8] is Chenopodium serotinum. An outline of the steps:
as §1

For assay [9], the system named is Sonchus asper. In outline:
as §1

In assay [10] the test system is Rumex dentatus. In outline:
as §1

Assay [11] concerns Commelina communis. An outline of the steps: as §1
The subject of assay [12] is Cayratia japonica. In outline: as §1
Assay [13] concerns Acalypha australis. An outline of the steps:
as §1

Assay [14] has as its system Fimbristylis miliacea. An outline of the steps: as §1
In assay [15] the test system is Pigweed (Amaranthus spinosus). In outline: as §1
For assay [16], the system named is Japanese false bindweed (Calystegia hederacea). An outline of the steps: as §1
Assay [17] relates to Parthenocissus tricuspidata. An outline of the steps: as §1
For assay [18], the system named is Malvaceae. In outline: as §1
Assay [19] relates to Rumex japonicus. An outline of the steps:
as §1

In assay [20] the test system is Abrtilon theophrasti. An outline of the steps: as §1
Assay [21] concerns Polygonum hydropiper. In outline:
as §1

Assay [22] has as its system Crisium setosum. An outline of the steps:
as §1

On to `CCCCCCC1NC(=O)C(C(C)=O)=C1O` (stereo not shown) [Compound 16], for which the Damage level in [1] is 4; in assay [2], 2; in assay [3] it was 3; in [4] it was 2; in assay [5], 3; in [6], 3. The Damage level is reported as 3 in assay [7]; 2 in [8]; 3 in assay [9]; 2 in assay [10]; 3 in [11]; 2 in [12]. Also, the Damage level in assay [13] is reported as 2; in assay [14] it was 3; in assay [15], 2; in [16], 4; in assay [17], 2; in [18], 2. The Damage level in assay [19] is listed as 2; in [20], 3; in assay [21], 3; in [22], 3.
